Test results: patent US9193731B2, “Antimicrobial compounds and methods of making and using the same” (Melinta Therapeutics, Inc., priority 2009, dated 2015)

Test system: Escherichia coli strain ATCC25922
Test: standard microdilution assay to determine minimum inhibitory concentrations (MICs)
Type: cell-based
Conditions: Escherichia coli strain ATCC25922, microdilution
In short: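 E. coli strain ATCC25922 tested per CLSI microdilution methodology (about 100 microliters per well) to find minimum inhibitory concentrations. Activity scored categorically at a 16 micrograms/ml threshold.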

| SMILES | E. coli ATCC25922 MIC |
| --- | --- |
| NCc1ccc(-n2cc3cc(-c4ccc(S(=O)(=O)N(CC5CC5)C5CCNCC5)cc4)[nH]c3nc2=O)cc1 [Compound 935] | − (a “−” indicates that the compound has an MIC value greater than 16 micrograms/ml) |
| COc1ccc(CN(C2CCNCC2)S(=O)(=O)c2ccc(-c3cc4cn(-c5ccc(C(=O)NCCCNC(=N)N)cc5)c(=O)nc4[nH]3)cc2)cc1[N+](=O)[O-] [Compound 1114] | + (a “+” indicates that the compound has an MIC value of 16 micrograms/ml or less) |
| N=C(N)NCCCNCc1ccc(-n2cc3cc(-c4cc(CN5Cc6ccccc6C5)cc(N5CCNCC5)c4)[nH]c3nc2=O)cc1 [Compound 1050] | + (a “+” indicates that the compound has an MIC value of 16 micrograms/ml or less) |
| N=C(N)NC[C@H](N)C(=O)NCc1ccc(-n2cc3cc(-c4ccc(S(=O)(=O)NC5CCNCC5)cc4)[nH]c3nc2=O)cc1 [Compound 1228] | + (a “+” indicates that the compound has an MIC value of 16 micrograms/ml or less) |
| CN(C)Cc1ccc(-n2cc3cc(-c4ccc(S(=O)(=O)N(CC5CC5)C5CCNCC5)cc4)[nH]c3nc2=O)cc1 [Compound 1001] | − (a “−” indicates that the compound has an MIC value greater than 16 micrograms/ml) |
| N=C(N)NCCCNCc1ccc(-n2cc3cc(-c4cccc(OCC5CNC5)c4)[nH]c3nc2=O)cc1 [Compound 1418] | + (a “+” indicates that the compound has an MIC value of 16 micrograms/ml or less) |
| N=C(N)NCCCNC(=O)Cn1cc2cc(-c3ccc(S(=O)(=O)NC4CCNCC4)cc3)[nH]c2nc1=O [Compound 1289] | − (a “−” indicates that the compound has an MIC value greater than 16 micrograms/ml) |
| N=C(N)N[C@@H]1CCN(Cc2ccc(-n3cc4cc(-c5ccc(S(=O)(=O)N(CCCn6cnnc6)C6CCNCC6)cc5)[nH]c4nc3=O)cc2)C1 [Compound 1219] | − (a “−” indicates that the compound has an MIC value greater than 16 micrograms/ml) |
| N=C(N)NCCCNCc1ccc(-n2cc3cc(-c4ccc(S(=O)(=O)N(CCCN5CCCCC5)C5CCNCC5)cc4)[nH]c3nc2=O)cc1 [Compound 839] | + (a “+” indicates that the compound has an MIC value of 16 micrograms/ml or less) |

Same assay, conditions: Escherichia coli, ATCC25922, Escherichia coli strain ATCC25922, microdilution; read-out: E. coli ATCC25922 MIC

| MIC [µg/mL] | SMILES |
| --- | --- |
| > 16 | NCCCNCc1ccc(-c2cn3nc(C4CC4)[nH]c3nc2=O)cc1 [Compound 646] |
| > 16 | COc1ccccc1-c1nn2cc(-c3ccc(CNCCCN)cc3)c(=O)nc2[nH]1 [Compound 734] |
| > 16 | N=C(N)NCCCNCc1ccc(-c2cn3cc(-c4ccc(S(=O)(=O)N5CCC(F)C5)cc4)[nH]c3nc2=O)cc1 (stereo not drawn) [Compound 744] |
| > 16 | NCc1ccc(-n2cc3cc(-c4cccc(CN5CCNCC5)c4)[nH]c3nc2=O)cc1 [Compound 1232] |
| < 16 | N=C(N)NCCCNCc1ccc(-n2cc3cc(-c4cc(C(=O)Nc5ccc(F)cc5)cc(N5CCNCC5)c4)[nH]c3nc2=O)cc1 [Compound 761] |
| > 16 | CS(=O)(=O)c1ccc(-c2cn3cc(-c4ccc(CNCCCNC(=N)N)cc4)c(=O)nc3[nH]2)cc1 [Compound 632] |
